Experiment [1] concerns A549 cells. Nature of the experiment: MTT cell viability assay, A549 cells. The experiment is classed as cell-based. To be noted: Homo sapiens, 72 h incubation, mean and SD of three independent experiments, read-out: IC50 against A549. The procedure:
(§1) Next, the cytotoxicity of the prodrugs was assessed in the human lung cancer (A549) and human ovarian cancer (OvCar-3) cell lines: overexpressing β-glucosidase, and, overexpressing both β-glucosidase and β-galactosidase, respectively.[40,41] For this, a standard MTT assay was employed to generate the proliferation profiles (cf. ESI ^† Fig. S1–S5) and allowed us to calculate the IC50 values for each compound. GM5756 fibroblast cells were included as non-cancerous control.
(§2) Cell culture. Ovcar-3 cells were maintained in RPMI-1640 medium (Invitrogen), A549 cells were maintained in high glucose (4.5 g/L) Dulbecco’s Modified Eagle’s medium (Invitrogen. Alle employed culture media were supplemented with 10% fetal bovine serum (Gibco), 2% penicillin/streptomycin (Sigma Aldrich), 1%GlutaMAX™-I (100x, Gibco), and 1% sodium pyruvate (100 mM, Gibco).
(§3) Cells were kept under a humidified atmosphere of 10% CO2 and 90% air at 37°C. Cells were split when they reached 90% confluency. All employed cell lines were sourced from the German Collection of Microorganisms and Cell Cultures (Leibnitz Institute, DSMZ).
(§4) Cell viability studies and MTT assays. Cells were harvested and plated on a 96-well plate in 100 µL growth medium at a density of 1500 cells per well. The cells were left to grow for 24 h at 37°C under a humidified atmosphere with 10% CO2. The next day, 100 µL of growth medium containing appropriate concentrations of the investigated compound were added to each well. As a control, the first row of wells was treated with 100 µL medium containing only the vehicle (1% DMSO); all wells contained a final concentration of 0.5% DMSO for the duration of the treatment. After incubation with the compound for 72 h, 50 µL of MTT solution (2.5 mg/mL 3-(4,5-dimethylthiazol-2-yl)-2,5-diphenyltetrazolium bromide dye in PBS buffer) was added to each well. After an additional incubation for 2 h, the supernatant was aspired off and 200 µL of DMSO was added to each well to solubilize the precipitated formazan dye. The produced formazan dye was quantified by measuring the optical density of the solution at 550 nm with a Tecan Infinite M Nano+ plate reader. A baseline correction was performed by subtracting a reference absorbance at 620 nm for each well. From the mean of the corrected absorbances for each set of equivalent wells, a dose-response curve was produced, which was then normalized to the wells containing untreated cells to allow for plate-to-plate comparison. The resulting dose-response curves were subjected to non-linear regression analysis performed in Microsoft Excel (version 16.64) to determine IC50 via the Hill-Langmuir model. Data is shown as the mean of three replicate experiments and error bars represent the standard deviation at each datum point.
Background: Formazan colour is commonly taken as a measure of viable cells.

The subject of experiment [2] is OvCar-3 cells. Nature of the experiment: MTT cell viability assay, OvCar-3 cells. The class given is cell-based. To be noted: Homo sapiens, 72 h incubation, mean and SD of three independent experiments, read-out: IC50 against OvCar-3. The procedure: as §1, §2, §3, §4
The subject of experiment [3] is GM5756 fibroblast cells. Nature of the experiment: MTT cell viability assay, GM5756 fibroblast cells (non-cancerous control). The experiment is classed as cell-based. The note with it: 72 h incubation, mean and SD of three independent experiments, read-out: IC50 against GM5756. The procedure:
as §1, §2, §3, §4

A short description of experiment [4]: Fe(III) binding study by UV-vis spectroscopy. To be noted: 30 μM compound, excess FeCl3 (50 μM), methanol. The procedure:
With the prodrugs in hand, binding studies were carried out using UV-vis spectroscopy; this was done to confirm the Fe(III) binding ability of all new compounds. […] To evaluate whether 2a, 2b, 3a, and 3b were chelating Fe(III), each prodrug was similarly dissolved in a solution containing excess FeCl3.
Fig. 2 UV-vis absorption spectra for prodrugs 2a/b and 3a/b as well as 1 at a concentration of 30 μM with an excess of FeCl3 as Fe(III) source (50 μM) in methanol.
UV-vis spectra were recorded in methanol containing the indicated ligand or prodrug at a concentration of 30 µM and as appropriate Fe(III) at a concentration of 50 µM. A stock solution of FeCl3 in DMSO was used as source of Fe(III) and ligands were added from a […] stock solution in DMSO. All samples contained a final concentration of <0.2% DMSO.
Figure S7: UV-vis absorption spectra of 1, Fe(III), and 1 + Fe(III). The graph for 1 + Fe(III) (Numerically) was constructed by numerically adding the respective signals of Fe(III) and 1 to show what graph could be expected if the two species were in the same solution without interacting.
Figure S8: UV-vis absorption spectra of 2a, Fe(III), and 2a + Fe(III). The graph for 2a + Fe(III) (Numerically) was constructed by numerically adding the respective signals of Fe(III) and 2a to show what graph could be expected if the two species were in the same solution without interacting. […]

Experiment [5] addresses T1, β-galactosidase (Escherichia coli, UniProt P00722).
T1 construct: purchased Roche; host or cells: E. coli overproducer
Nature of the experiment: AIE fluorescence study of release of 1 with β-galactosidase. The class given is biochemical, e.coli. The note with it: free chelator 1 as reference, 20 μM, enzyme not specified. The procedure:
The AIE fluorescence properties of 1 were used as a means of supporting the above conclusion. The emission of all glycosylated prodrugs is suppressed. Thus, solutions of each prodrug were prepared in water, and three enzyme units of β-galactosidase or β-glucosidase, as appropriate, were added to the prodrugs. Each mixture was then analysed by fluorescence spectroscopy after 24 h of incubation. […] This finding is consistent with a lack of enzymatic activation.
Fig. 4 Relative emission intensity at 480 nm (*for 3b at 420 nm) of evaluated compounds at 20 μM before and after incubation with 3 U of the appropriate enzyme. TEXT PRINTED IN THE PICTURE: 1: Relative Emission 480 nm: 100% (Before incubation); Relative Emission 480 nm: 100% (After 24 h incubation) | 2a: Relative Emission 480 nm: 0% (Before incubation); Relative Emission 480 nm: 0% (After 24 h incubation) | 2b: Relative Emission 480 nm: 0% (Before incubation); Relative Emission 480 nm: 1% (After 24 h incubation) | 3a: Relative Emission 480 nm: 1% (Before incubation); Relative Emission 480 nm: 33% (After 24 h incubation) | 3b*: Relative Emission 480 nm: 1% (Before incubation); Relative Emission 480 nm: 11% (After 24 h incubation) […]
Figure S25: Fluorescence spectra for excitation (blue) and emission (green) of 1 at a concentration of 20 μM in water.
Figure S26: Fluorescence spectra for excitation (blue) and emission (green) of 2a at a concentration of 20 μM in water before (left) and after (right) incubation with 3 units of b-galactosidase for 24 h. […]
Figure S28: Fluorescence spectra for excitation (blue) and emission (green) of 3a at a concentration of 20 μM in water before (left) and after (right) incubation with 3 units of β-galactosidase for 24 h. […]

As usually defined, the IC50 is the concentration that inhibits the measured activity by half.

T1 sequence (P00722 2-1024): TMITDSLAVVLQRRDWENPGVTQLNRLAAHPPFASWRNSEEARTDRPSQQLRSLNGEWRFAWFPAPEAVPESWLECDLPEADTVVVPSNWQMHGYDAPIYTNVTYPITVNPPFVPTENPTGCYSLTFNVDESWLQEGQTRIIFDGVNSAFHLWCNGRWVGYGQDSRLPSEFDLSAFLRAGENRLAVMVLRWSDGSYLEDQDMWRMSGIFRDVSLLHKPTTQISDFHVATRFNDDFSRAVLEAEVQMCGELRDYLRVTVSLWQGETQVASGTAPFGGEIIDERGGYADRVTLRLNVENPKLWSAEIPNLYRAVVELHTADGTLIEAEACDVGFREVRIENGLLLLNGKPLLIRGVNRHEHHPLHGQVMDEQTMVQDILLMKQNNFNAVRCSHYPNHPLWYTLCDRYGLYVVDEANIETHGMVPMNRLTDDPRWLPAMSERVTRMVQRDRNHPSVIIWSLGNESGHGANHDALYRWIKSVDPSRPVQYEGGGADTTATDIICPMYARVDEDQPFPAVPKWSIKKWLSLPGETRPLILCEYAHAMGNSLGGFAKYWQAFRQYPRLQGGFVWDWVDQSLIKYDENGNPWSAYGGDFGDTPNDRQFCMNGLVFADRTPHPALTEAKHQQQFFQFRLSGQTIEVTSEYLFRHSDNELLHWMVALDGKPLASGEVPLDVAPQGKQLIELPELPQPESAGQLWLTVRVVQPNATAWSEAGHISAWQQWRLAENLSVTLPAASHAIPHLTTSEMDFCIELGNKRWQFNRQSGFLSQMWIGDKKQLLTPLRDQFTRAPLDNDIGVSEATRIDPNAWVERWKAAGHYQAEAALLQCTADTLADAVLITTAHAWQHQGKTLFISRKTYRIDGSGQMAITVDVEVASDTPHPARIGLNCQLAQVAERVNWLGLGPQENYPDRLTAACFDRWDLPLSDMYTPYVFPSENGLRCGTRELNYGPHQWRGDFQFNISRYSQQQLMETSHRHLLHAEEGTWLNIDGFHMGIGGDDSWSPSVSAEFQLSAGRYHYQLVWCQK

For the molecule `Oc1ccccc1-c1nc(-c2ccccc2O)n(-c2ccccc2)n1` [compound 1, reference compound], the IC50 in experiment [1] amounted to 3.1 ± 0.4 µM; in experiment [2], 3.9 ± 1.6 µM; in experiment [3], 2.7 ± 0.1 µM. Further, the “Absorbance at 510 nm (Fe(III) chelation band)” value in experiment [4] is given as “characteristic absorption band at 510 nm”. The “Relative emission intensity at 480 nm” value in experiment [5] (after 24 h incubation) and in experiment [5] (before incubation) was 100% each time.

Source of the values: PMC12177571, “Glycosidase-activated prodrugs of a cytotoxic iron chelator for targeted cancer therapy” (RSC Medicinal Chemistry, 2025).
